# Earlier results in patent US20160235727A1, “NOVEL PYRROLIDINE DERIVED BETA 3 ADRENERGIC RECEPTOR AGONISTS” (Merck Sharp & Dohme Corp., priority 2013, published 2016).
# Tested on: rats
# Conditions: cited from earlier work
# [1] = intravenous, cystometric studies
compound,measurement,setting,value
C[C@H](Cc1ccc2c(c1)OC(C(=O)[O-])(C(=O)[O-])O2)NC[C@H](O)c1cccc(Cl)c1.[Na+].[Na+] [CL316243],bladder pressure,intravenous administration,reduces
same,bladder capacity,[1],increases
same,micturition interval,[1],prolongation
same,residual urine volume,[1],without increasing
